Assay results published in patent publication US20200268632A1, “ANTI-AGING AGENT AND ANTI-AGING METHOD” (priority 2017, published 2020).

Tests used:
melatonin = experiment: Evaluation of melatonin secretion promoting effect: melatonin concentration in plasma during 24 weeks of oral ingestion; format: in vivo, human; details: for Change rate (24 weeks-0 weeks) of melatonin concentration in the plasma: mean ± SD
Method: In order to confirm a change in the melatonin quantity before and after ingestion of the nicotinamide mononucleotide, a test was conducted on healthy males and females aged 50 to 70 years.
As a sample of Working Example 1, a capsule formulation containing the nicotinamide mononucleotide and starch (100 mg (low dose) and 200 mg (high dose) of the nicotinamide mononucleotide in 4 capsules) (manufactured by SHINKOWA PHARMACEUTICAL Co., Ltd.) was used.
(§1) Each group consisting of five healthy males and females aged 50 to 70 years in an unbiased age group ingested the above low dose capsule formulation once a day by 4 capsules for 24 weeks (total 10 subjects, a low dose group: 100 mg/daily ingestion). On the other hand, each group consisting of five healthy males and females aged 50 to 70 years in the unbiased age group ingested the above high dose capsule formulation once a day by 4 capsules for 24 weeks (total 10 subjects, a high dose group: 200 mg/daily ingestion). In order to conduct appropriate evaluations, those who had been regularly using medical products for chronic diseases, those who had been consuming healthy foods that may affect clinical research, and those who were currently participating in other clinical researches or clinical trials, or had participated in other clinical researches or clinical trials within the last three months were excluded from the subject for the evaluation. The capsule formulations were ingested at 10 am (between meals and fasting state) together with water or lukewarm water (oral administration).
Measurement of the melatonin quantity in plasma was conducted by requesting the measurement to an external public organization according to a usual method. FIGS. 2a to 2c indicates transitions of the melatonin concentration (pg/ml) in the plasma for 24 weeks. FIG. 2a represents the transitions of the whole subjects; FIG. 2b represents the transitions of the male subjects; FIG. 2c represents the transitions of the female subjects. FIGS. 3a to 3c indicates change rates (%) of the blood melatonin concentration up to 24 weeks when the nicotinamide mononucleotide was orally administered to the subjects for 24 weeks. FIG. 3a represents the change rates of the whole subjects; FIG. 3b represents the change rates of the male subjects; FIG. 3c represents the change rates of the female subjects. Further, Table 1 indicates the numerical values of the melatonin concentration (pg/ml) in the plasma before the ingestion of the nicotinamide mononucleotide (0 weeks) and after the ingestion of the nicotinamide mononucleotide (24 weeks). In addition, the numerical values represent mean values ±standard deviation.

[1] = Safety observation of the subjects during 24 weeks of ingestion (complaints, stool abnormality); format: in vivo, human; details: healthy males and females aged 50 to 70, 100 or 200 mg/daily oral, ingestion for 24 weeks
Method: as §1

NC(=O)c1ccc[n+]([C@@H]2O[C@H](COP(=O)([O-])O)[C@@H](O)[C@H]2O)c1 [nicotinamide mononucleotide]
Change rate (24 weeks-0 weeks) of melatonin concentration in the plasma (melatonin; female subjects, high dose group (200 mg/daily, oral)): 6.03 ± 5.90 pg/mL | Change rate (24 weeks-0 weeks) of melatonin concentration in the plasma (melatonin; female subjects, low dose group (100 mg/daily, oral)): 2.21 ± 3.19 pg/mL | effect of ingestion on melatonin concentrations in plasma (FIGS. 2a-2c, 3a-3c) (melatonin; healthy males and females aged 50 to 70, 100 or 200 mg/daily oral, up to 24 weeks): increased the melatonin concentrations in plasma at the high change rates | Change rate (24 weeks-0 weeks) of melatonin concentration in the plasma (melatonin; male subjects, high dose group (200 mg/daily, oral)): 2.86 ± 3.10 pg/mL | Change rate (24 weeks-0 weeks) of melatonin concentration in the plasma (melatonin; male subjects, low dose group (100 mg/daily, oral)): 3.44 ± 3.57 pg/mL | melatonin concentration in the plasma after ingestion compared to before ingestion, statistical significance (melatonin; whole subjects, both the low dose group and the high dose group, 24 weeks, p<0.05): a significant difference was observed | Change rate (24 weeks-0 weeks) of melatonin concentration in the plasma (melatonin; whole subjects, high dose group (200 mg/daily, oral)): 4.45 ± 4.75 pg/mL | Change rate (24 weeks-0 weeks) of melatonin concentration in the plasma (melatonin; whole subjects, low dose group (100 mg/daily, oral)): 2.82 ± 3.26 pg/mL | unidentified complaints (abdominal pain, nausea, vomiting, headache) or stool abnormality [1]: did not show any unidentified complaint
